{"source": "patent US20170246586A1", "about": "“PROCESS AND APPARATUS FOR SEPARATING ENTRAINED AMINES FROM A GAS STREAM” (Carbonoro B.V., priority 2014, published 2017)", "key": {"[1]": {"conditions": "20° C.; cited from earlier work"}, "[2]": {"test": "Water solubility (20° C.)", "type": "physicochemical"}, "[3]": {"test": "amine content of the aqueous phase after phase separation of heated MCA/DMCA mixture in water", "type": "physicochemical", "conditions": "3 M MCA:DMCA 1:3 wt./wt. in water, phases separated", "description": "Aqueous samples containing MCA and/or DMCA were analysed by UPLC-MS/MS. The UPLC apparatus was a Waters ACQUITY° system. Injection volume was 3 μl. Mobile phase A: 10 mM ammonium acetate, 0.1 wt. % formic acid in water. Mobile phase B: methanol. Column: ACQUITY UPLC® HSB T3, 1.8 μ2.1×50 mm. Column temperature: 30° C. Gradient (Table 1). The mass spectrometer was an AB SCIEX™ API 3200 apparatus.\nA mixture (200 ml) of MCA and DMCA (total amine concentration is 3 M; ratio MCA:DMCA is 1:3 wt./wt.≈1:2.67 mol/mol; total absolute amount MCA is 92.8 g/l; total amount of DMCA is 278.4 g/l) in water was heated at various temperatures for 24 h during which phase separation occurred. The phases were separated and the aqueous phase was analysed for determining the amine content. As can be observed from the data in Table 9, the amount of amine decreases with increasing temperature."}, "[4]": {"conditions": "J. Sangster, J. Phys. Chem. Ref. Data 18, 111, 1989; cited from earlier work"}}}
{"smiles": "CN(C)C1CCCCC1", "note": "[DMCA, N,N-dimethylcyclohexylamine]", "values": [{"measurement": "Water solubility", "setting": "[1]", "result": 54, "unit": "mg/mL"}, {"measurement": "solubility", "setting": "[2]", "result": "~480", "unit": "mM"}]}
{"smiles": "CNC1CCCCC1", "note": "[MCA, N-methylcyclohexylamine]", "values": [{"measurement": "amine content of aqueous phase (MCA)", "setting": "[3]; heated 24 h at 40 ° C.", "result": 6940, "unit": "mg/L"}, {"measurement": "amine content of aqueous phase (MCA)", "setting": "[3]; heated 24 h at 50 ° C.", "result": 5630, "unit": "mg/L"}, {"measurement": "amine content of aqueous phase (MCA)", "setting": "[3]; heated 24 h at 60 ° C.", "result": 5090, "unit": "mg/L"}, {"measurement": "amine content of aqueous phase (MCA)", "setting": "[3]; heated 24 h at 70 ° C.", "result": 4520, "unit": "mg/L"}]}
{"smiles": "NC1CCCCC1", "note": "[cyclohexylamine]", "values": [{"measurement": "measured log P", "setting": "[4]", "result": "1.49±0.10"}]}
